Measurements reported in US8853146B2, “Hapten compounds and compositions and uses thereof” (The Board of Trustees of the University of Arkansas, priority 2007, dated 2014).

Experiments:
Parameters in all cases: species or system mouse
Conditions in all cases: RIA IC50 value for METH/RIA IC50 value for test ligand
mAb6H4 = assay: RIA cross-reactivity profile, inhibition of [3H]-(+)METH binding to mAb6H4
Method: (§1) KD values for mAb were determined by the method of Akera and Cheng (1977, Biochim Biophys Acta 470:412-423).

mAb4G9 = assay: RIA cross-reactivity profile, inhibition of [3H]-(+)METH binding to mAb4G9
Method: as §1

mAb6H8 = assay: RIA cross-reactivity profile, inhibition of [3H]-(+)METH binding to mAb6H8
Method: as §1

Compound	Antibody Specificity (Relative Potency to METH), mAb6H4 (mAb6H4)	Antibody Specificity (Relative Potency to METH), mAb4G9 (mAb4G9)	Antibody Specificity (Relative Potency to METH), mAb6H8 (mAb6H8)
CC(N)Cc1ccccc1 (single isomer, unassigned; (+)) [(+)AMP, (+)-amphetamine]	0.001	0.34	0.023
CC(N)Cc1ccc2c(c1)OCO2 (single isomer, unassigned; (+)) [(+)MDA]	0.001	0.090	0.024
CNC(C)Cc1ccc2c(c1)OCO2 (single isomer, unassigned; (+)) [(+)MDMA, (+)-3,4-methylenedioxymethamphetamine]	1.25	0.29	3.40
CC(N)C(O)c1ccccc1 (single isomer, unassigned; (+)) [(+)phenylpropanolamine]	<0.001	<0.001	<0.001
CC(N)Cc1ccccc1 (single isomer, unassigned; (-)) [(−)AMP, (−)amphetamine]	<0.001	0.063	0.003
CC(N)Cc1ccc2c(c1)OCO2 (single isomer, unassigned; (-)) [(−)MDA]	<0.001	0.002	<0.001
CNC(C)Cc1ccc2c(c1)OCO2 (single isomer, unassigned; (-)) [(−)MDMA]	0.007	0.011	0.018
CNC(C)Cc1ccc(O)cc1 (stereo not drawn) [4-OH-METH]	0.588	0.106	0.294
CN[C@H](C)[C@@H](O)c1ccccc1 [(+)ephedrine]	<0.001	<0.001	<0.001
NCCc1ccc(O)c(O)c1 [dopamine]	<0.001	<0.001	<0.001
CNC[C@H](O)c1ccc(O)c(O)c1 [epinephrine]	<0.001	<0.001	<0.001
CNC[C@H](O)c1cccc(O)c1 [l-phenylphrine]	0.001	<0.001	<0.001
NC[C@H](O)c1ccc(O)c(O)c1 [norepinepherine]	<0.001	<0.001	<0.001
NCCc1c[nH]c2ccc(O)cc12 [serotonin]	<0.001	<0.001	<0.001
NCCc1ccc(O)cc1 [tyramine]	<0.001	<0.001	<0.001
NCCc1ccccc1 [β-phenylethylamine]	<0.001	0.001	<0.001
(+)norpseudoephedrine	<0.001	<0.001	<0.001
(+)pseudoephedrine	<0.001	0.004	0.018
(−)-methamphetamine [(−)METH]	0.030	0.102	0.011
